Patent US20080268024A1, “Compositions for Oral and/or Topical Administration” (priority 2004, published 2008)

Key:
[1] = system: Bifidobacterium; experiment: Stimulation of growth: enumeration of Bifidobacterium in vitro in human fecal homogenate culture; assay type: cell-based, Bifidobacterium spp; conditions: 1% test substance or mixture, human fecal homogenate in diluted WC broth, incubated up to 24 hours, control 1.0 × 10^6
Protocol: (§1) The stimulation of growth of micro-organisms has been studied by enumerating bifidobacterium and lactobacilli in vitro in the presence of various test substances:
(§2) Aliquots (1 mL) of human fecal homogenates (10 g per 100 mL diluent) were added to diluted WC broth (diluted 50:50 with 0.05M phosphate buffer) to which were added the test mixtures and a lactobacillus or bifidobacterium strain. For each of the combinations, parallel tubes were prepared with one set being inoculated with Bifidobacterium spp or Lactobacillus spp. All mixtures were then incubated for up to 24 hours and bacterial numbers determined. The results are presented in Tables 1 and 2 (amount of extract calculated on active content): […]

[2] = system: Lactobacterium; experiment: Stimulation of growth: enumeration of lactobacilli in vitro in human fecal homogenate culture; assay type: cell-based, Lactobacillus spp; conditions: 1% test substance or mixture, human fecal homogenate in diluted WC broth, incubated up to 24 hours, control 2.8 × 10^5
Protocol: as §1, §2

Compound: OC[C@H]1O[C@@H](O[C@H]2[C@H](O)[C@@H](O)[C@@H](O[C@]3(CO)O[C@H](CO)[C@@H](O)[C@@H]3O)O[C@@H]2CO)[C@H](O)[C@@H](O)[C@H]1O [C2, Lactosucrose]
- Bacterial numbers CFU/ml [1]: 1.1 × × 10^7 CFU/ml
- Bacterial numbers CFU/ml [2]: 1.1 × × 10^6 CFU/ml

Compound: Lactolin [C3]
- Bacterial numbers CFU/ml [1]: 1.6 × × 10^7 CFU/ml
- Bacterial numbers CFU/ml [2]: 1.5 × × 10^6 CFU/ml
